Reference: ChEMBL document CHEMBL1153975, “Structure-activity relationships of diverse annonaceous acetogenins against human tumor cells” (Bioorg Med Chem Lett, 2009)

Columns and labels:
Type in all cases: functional, cell-based
[1] = tested on: HeLa; assay: Cytotoxicity against human HeLa cells after 72 hrs by MTT assay
[2] = Cytotoxicity against human SMMC-7541 cells after 72 hrs by MTT assay
[3] = Cytotoxicity against human A-5408 cells after 72 hrs by MTT assay
[4] = tested on: SGC-7901; assay: Cytotoxicity against human SGC7901 cells after 72 hrs by MTT assay; conditions: SGC-7901, 72 h
[5] = tested on: MCF7; assay: Cytotoxicity against human MCF7 cells after 72 hrs by MTT assay; conditions: MCF7, 72 h

| Structure (SMILES) | IC50 [1] | IC50 [2] | IC50 [3] | IC50 [4] | IC50 [5] |
| --- | --- | --- | --- | --- | --- |
| CCCCCC[C@@H](O)CCC[C@H](O)[C@@H]1CC[C@@H]([C@H](O)CC[C@@H](O)[C@@H]2CC[C@H](CCCCCCCCCC3=C[C@@H](C)OC3=O)O2)O1 | 1.3 nM | 60 nM | 16 nM | 93 nM | 3.3 nM |
| CCCCCC[C@@H](O)CCC[C@H](O)[C@@H]1CC[C@@H]([C@H](O)CC[C@@H](O)[C@@H]2CC[C@@H](CCCCCCCCCC3=C[C@@H](C)OC3=O)O2)O1 [Squamostatin-A] | 33 nM | 50 nM | 2.6 nM | 97 nM | 970 nM |
| CCCCCCCCCC[C@H](O)[C@H]1CC[C@H]([C@H]2CC[C@H]([C@H](O)CCCCCCCCCCCCC3=C[C@@H](C)OC3=O)O2)O1 [ISODESACETYLUVARICIN] | 13 nM | 16 nM | 160 nM | 84 nM | 21 nM |
| CCCCCCCCCC[C@@H](O)[C@@H]1CC[C@@H]([C@H](O)CC[C@@H](O)[C@@H]2CC[C@@H](CCCCCCCCCC3=C[C@@H](C)OC3=O)O2)O1 [Squamostatin-E] | 270 nM | 180 nM | 130 nM | 210 nM | 900 nM |
| CCCCCCCCCCC(O)C1CCC(C2CCC(C(O)CCCCCCCC[C@H](O)CC3=C[C@@H](C)OC3=O)O2)O1 (some centres undefined) [ASIMICIN] | 27 nM | 11 nM | 3.6 nM | 4.3 nM | 13 nM |
| CCCCCCCCCC[C@@H](O)[C@H]1CC[C@H]([C@H]2CC[C@H]([C@H](O)CCCCCCCCCCCCC3=C[C@@H](C)OC3=O)O2)O1 [DEACETYLUVARICIN] | 160 nM | 140 nM | 400 nM | 43 nM | 40 nM |
| CCCCCCCCCCCC[C@@H](O)[C@H]1CC[C@H]([C@H](O)CCCCCC(O)CCCCCCC2=C[C@H](C)OC2=O)O1 (some centres undefined) | 1000 nM | 8.3 nM | 320 nM | 230 nM | 37 nM |
| CCCCCC[C@@H](O)CCC[C@@H](O)[C@@H]1CC[C@@H]([C@H](O)CC[C@@H](O)[C@@H]2CC[C@@H](CCCCCCCCCC3=C[C@@H](C)OC3=O)O2)O1 [Squamostatin-B] | 380 nM | 170 nM | 43 nM | 170 nM | 730 nM |
| CCCCCCCCCC[C@H](O)[C@@H]1CC[C@@H]([C@H](O)CC[C@@H](O)[C@@H]2CC[C@@H](CCCCCCCCCC3=C[C@@H](C)OC3=O)O2)O1 [Squamostatin-D] | 38 nM | 54 nM | 1.4 nM | 180 nM | 45 nM |
| CCCCCC[C@@H](O)CCC[C@@H](O)[C@H]1CC[C@H]([C@H]2CC[C@H]([C@H](O)CCCCCCCCCCCCC3=C[C@@H](C)OC3=O)O2)O1 [Squamocin-D] | 24 nM | 12 nM | 1.8 nM | 1.6 nM | 2.8 nM |
| COc1cccc2c1C(=O)c1c(O)c3c(c(O)c1C2=O)C[C@@](O)(C(=O)CO)C[C@@H]3O[C@H]1C[C@H](N)[C@H](O)[C@H](C)O1 [DOXORUBICIN] | 16 nM | 3.7 nM | 26 nM | 13 nM |  |
| CCCCCC[C@H](O)CCC[C@H](O)[C@H]1CC[C@H]([C@H]2CC[C@H]([C@H](O)CCCCCCCCCCCCC3=C[C@H](C)OC3=O)O2)O1 [SQUAMOCIN] | 9.7 nM | 0.09 nM | 0.87 nM | 0.73 nM | 0.5 nM |
